Consider 15 compounds from patent EP1276722B1, “NAPHTHAMIDINE UROKINASE INHIBITORS” (ABBOTT LABORATORIES, priority 2000, dated 2001).

The structures appear in SMILES notation.

One assay concerns angiogenesis.
Test: not given
The note with it: J. Cell Biol. 1991, 115[3 Pt 2], 402a; cited from earlier work.
For `N=C(N)NC(=O)c1nc(Cl)c(N)nc1N` [Amiloride], the angiogenesis in vitro entry was “inhibit”.

The target of the next assay is T1, urokinase enzyme Abbokinase (Homo sapiens, UniProt P00749).
T1 construct: purchased Abbott Laboratories, Abbott Park, IL
Description: Inhibition of urokinase on chromogenic substrate S-2444. It counts as biochemical. The settings on record: read-out: Ki.
Description: Four concentrations were chosen, then 5 µl of each were diluted to a total assay volume of 200 µL. […] Several vials were reconstituted as directed on the vial, aliquoted, and stored frozen The enzyme was further diluted in assay buffer and 10 µL was used in the assay. Enzyme concentration in the assay was 2-3 nM. The assay was performed as follows: 175 µL of buffer was pipetted inta the polystyrene plate, and 5 µL solution of a compound of this invention in DMSO was added. The mixture was vortexed, treated with 10 µL of enzyme in buffer, vortexed, treated with 10 µL of substrate in water, and vortexed. […] The Spectromax® calculated the reaction rates which were used to calculate percent inhibition of the compounds of this invention versus the reaction rate of the enzyme in the absence of any inhibitor. The Ki's of the inhibitors were calculated from the percent inhibition and previously established Km.
Usually Ki stands for the dissociation constant of the complex between target and ligand, obtained from inhibition or displacement. Turning to `COc1ccccc1-c1cc(C2CC2c2ccc3c(c2)C(C(C)C)N(C)CC3)cc2ccc(C(=N)N)cc12` (stereo not shown) [Example 40, 6-(2-(1-isopropyl-2-methyl-1,2,3,4-tetrahydro-7-isoquinolinyl)cyclopropyl)-8-(2-methoxyphenyl)-2-naphthalenecarboximidamide], the Ki stood at 0.81 µM.
Still for that read-out and setting: the result for `C=Cc1cc(C2CC2c2ccc3c(c2)C(C(C)C)N(C)CC3)cc2ccc(C(=N)N)cc12` (stereo not shown) [Example 41, 6-(2-(1-isopropyl-2-methyl-1,2,3,4-tetrahydro-7-isoquinolinyl)cyclopropyl)-8-vinyl-2-naphthalenecarboximidamide] reads 0.014 µM; that for `N=C(N)c1ccc2cc(C3CC3c3ccc4c(c3)CCNC4)ccc2c1` (stereo not shown) [Example 46, 6-(2-(1,2,3,4-tetrahydro-6-isoquinolinyl)cyclopropyl)-2-naphthalenecarboximidamide], 0.18 µM.
Same read-out and setting: with `CCC1CNCc2ccc(C3CC3c3ccc4cc(C(=N)N)ccc4c3)cc21` (stereo not shown) [Example 48, 6-(2-(4-ethyl-1,2,3,4-tetrahydro-6-isoquinolinyl)cyclopropyl)-2-naphthalenecarboximidamide] the figure was 0.029 µM; with `CCC1CN(Cc2ccccc2)Cc2ccc(C3CC3c3ccc4cc(C(=N)N)ccc4c3)cc21` (stereo not shown) [Example 49, 6-(2-(2-benzyl-4-ethyl-1,2,3,4-tetrahydro-6-isoquinolinyl)cyclopropyl)-2-naphthalenecarboximidamide], 0.278 µM.
Turning to `CCC1CNCc2ccc(C=Cc3ccc4cc(C(=N)N)ccc4c3)cc21` (stereo not shown) [Example 50, 6-(2-(4-ethyl-1,2,3,4-tetrahydro-6-isoquinolinyl)ethenyl)-2-naphthalenecarboximidamide], the Ki is 0.043 µM.
Still for that read-out and setting: with `CCC1CN(C)Cc2ccc(C3CC3c3ccc4cc(C(=N)N)ccc4c3)cc21` (stereo not shown) [Example 51, 6-(2-(4-ethyl-2-methyl-1,2,3,4-tetrahydro-6-isoquinolinyl)cyclopropyl)-2-naphthalenecarboximidamide] the figure was 0.123 µM; with `CCC1CN(C(C)=O)Cc2ccc(C3CC3c3ccc4cc(C(=N)N)ccc4c3)cc21` (stereo not shown) [Example 52, 6-(2-(2-acetyl-4-ethyl-1,2,3,4-tetrahydro-6-isoquinolinyl)cyclopropyl)-2-naphthalenecarboximidamide], 0.53 µM; with `CCC1CN=C(C(C)C)c2ccc(C3CC3c3ccc4cc(C(=N)N)ccc4c3)cc21` (stereo not shown) [Example 54, 6-(2-(4-ethyl-1-isopropyl-3,4-dihydro-6-isoquinolinyl)cyclopropyl)-2-naphthalenecarboximidamide], 0.343 µM.
As for `CCC1CN=C(C(C)C)c2ccc(C=Cc3ccc4cc(C(=N)N)ccc4c3)cc21` (stereo not shown) [Example 55, 6-(2-(4-ethyl-1-isopropyl-3,4-dihydro-6-isoquinolinyl)ethenyl)-2-naphthalenecarboximidamide], the Ki is 0.255 µM.
Still for that read-out and setting: with `N=C(N)c1ccc2cc(C3CC3c3ccc4c(c3)C(C3CCCCC3)=NCC4)cc(Br)c2c1` (stereo not shown) [Example 56, 8-bromo-6-(2-(1-cyclohexyl-3,4-dihydro-7-isoquinolinyl)cyclopropyl)-2-naphthalenecarboximidamide] the figure was 0.018 µM; with `CN1CCc2ccc(C3CC3c3cc(Br)c4cc(C(=N)N)ccc4c3)cc2C1C1CCCCC1` (stereo not shown) [Example 57, 8-bromo-6-(2-(1-cyclohexyl-2-methyl-1,2,3,4-tetrahydro-7-isoquinolinyl)cyclopropyl)-2-naphthalenecarboximidamide], 0.025 µM.
Same read-out and setting: the result for `CC(C)/C=C/c1cc(C2CC2c2ccc3c(c2)C(C2CCCCC2)=NCC3)cc2ccc(C(=N)N)cc12` (stereo not shown) [Example 58, 6-(2-(1-cyclohexyl-3,4-dihydro-7-isoquinolinyl)cyclopropyl)-8-((1E)-3-methyl-1-butenyl)-2-naphthalenecarboximidamide] reads 0.01 µM; that for `CC(C)/C=C/c1cc(C2CC2c2ccc3c(c2)C(C2CCCCC2)N(C)CC3)cc2ccc(C(=N)N)cc12` (stereo not shown) [Example 59, 6-(2-(1-cyclohexyl-2-methyl-1,2,3,4-tetrahydro-7-isoquinolinyl)cyclopropyl)-8-((1E)-3-methyl-1-butenyl)-2-naphthalenecarboximidamide], 0.01 µM.

In a further assay the test system is tumor metastasis.
Test: not given
The note with it: Anticancer Res. 1988, 8, 1373-1376; cited from earlier work.
With `N=C(N)NC(=O)c1nc(Cl)c(N)nc1N` [Amiloride], the “tumor metastasis in vivo” value is “inhibit”.
